The values that follow come from ChEMBL document CHEMBL4311995, “Discovery and development of extreme selective inhibitors of the ITD and D835Y mutant FLT3 kinases” (Eur J Med Chem, 2019).

A short description of one data set: cells. It is filed as ADME, cell-based. The following applies: Homo sapiens, HS5, 72 h.
A further data set has as its system K562. Put plainly: cells. It is filed as functional, cell-based. The following applies: Homo sapiens, K562, 72 h.
The next data set has as its system U-937. The data set can be described thus: cells. It is filed as functional, cell-based. The note with it: Homo sapiens, U-937, 72 h.
A short description of data set [1]: physchem. The note with it: buffer, pH 7.4.
The nature of data set [2]: physchem. The note with it: buffer, pH 2.
A short description of a further data set: in vitro. The following applies: PAMPA, pH 7.4. (In general: PAMPA measures passive passage across an artificial lipid membrane.)
Another data set has as its system MV4-11. Put plainly: cells. The following applies: Homo sapiens, MV4-11, 72 h. The class given is functional, cell-based.

In brackets after ≈: the same amount, converted by molar mass.

Regarding `CN(C)CCCNc1nc(/C=C/c2ccc(S(C)(=O)=O)cc2)nc2ccc(Cl)cc12`, the IC50 (in general, the concentration that gives 50% inhibition) in the data set “cells” stood at 4.03 µM; in the data set with K562, 4.84 µM; in the data set on U-937, 9.02 µM. The results for the kinetic solubility at 24 h in “physchem [1]” and in “physchem [2]” were 23 µM (≈ 10.2 µg/mL) and 111 µM (≈ 49.4 µg/mL), respectively. In addition, in the data set “in vitro”, the Papp (usually a coefficient for how fast a substance crosses the barrier) at 5 h is 0.61 ×10⁻⁶ cm/s.
In the case of `CC(C)c1ccc(/C=C/c2nc(NCCN(C)C)c3cc(Cl)ccc3n2)cc1`, the IC50 in “cells” worked out at 3.03 µM; with K562, 2.87 µM. Further, the figures for the kinetic solubility at 24 h in “physchem [1]” and in the data set “physchem [2]” were 12 µM (≈ 4.74 µg/mL) and 110 µM (≈ 43.4 µg/mL), respectively. In the data set “in vitro”, the Papp at 5 h is 0.73 ×10⁻⁶ cm/s.
For `CCN(CC)CCCNc1nc(/C=C/c2ccc(OC)cc2)nc2ccc(Br)cc12`, the concentration for half-maximal inhibition (IC50) in the data set “cells” stood at 2.07 µM; with K562, 4.03 µM; with U-937, 6.36 µM. Further, the kinetic solubility at 24 h in “physchem [1]” and in the data set “physchem [2]” was 96 µM (≈ 45.1 µg/mL) in each case. The same compound came in with a Papp at 5 h in the data set “in vitro” of 5.35 ×10⁻⁶ cm/s.
For the compound `CSc1ccc(/C=C/c2nc(NCCN(C)C)c3ccccc3n2)cc1`, the IC50 in “cells” is 4 µM; with K562, 5.21 µM. In addition, the values for the solubility (kinetic) at 24 h in the data set “physchem [1]” and in the data set “physchem [2]” were 116 µM (≈ 42.3 µg/mL) and 119 µM (≈ 43.4 µg/mL), respectively. In the data set “in vitro”, this compound showed a Papp at 5 h of 5.86 ×10⁻⁶ cm/s.
In the case of `CCN(CC)CCNc1nc(/C=C/c2ccc(C(C)C)cc2)nc2ccc(F)cc12`, the IC50 came out at 3.36 µM in the data set “cells”, 2.12 µM with K562 and 4.11 µM with U-937. Moreover, the solubility (kinetic) (in general, the concentration staying in solution when a stock, usually in DMSO, is diluted into the medium) at 24 h turned out to be 36 µM (≈ 14.6 µg/mL) in the data set “physchem [1]” and 120 µM (≈ 48.8 µg/mL) in the data set “physchem [2]”. The compound further had a Papp at 5 h in “in vitro” of 1.74 ×10⁻⁶ cm/s.
As to `CN(C)CCNc1nc(/C=C/c2ccc(F)cc2)nc2ccccc12`, the IC50 in “cells” worked out at 6.37 µM; in the data set on K562, 5.81 µM; in the data set with U-937 it was 10.9 µM. For the same compound, the kinetic solubility at 24 h in “physchem [1]” is 10 µM (≈ 3.36 µg/mL); in the data set “physchem [2]”, 120 µM (≈ 40.4 µg/mL). The compound further returned a Papp at 5 h in “in vitro” of 9.61 ×10⁻⁶ cm/s.
Turning to `CCN(CC)CCNc1nc(/C=C/c2ccc(S(C)(=O)=O)cc2)nc2ccc(Cl)cc12`, the concentration for half-maximal inhibition (IC50) turned out to be 4.09 µM in “cells”, 2.59 µM in the data set on K562, 0.04 µM with MV4-11 and 4.95 µM in the data set on U-937. For the same compound, the solubility (kinetic) at 24 h in “physchem [1]” is 12 µM (≈ 5.51 µg/mL); in “physchem [2]”, 115 µM (≈ 52.8 µg/mL). Further, the Papp at 5 h in the data set “in vitro” is 0.56 ×10⁻⁶ cm/s.
`CC(C)c1ccc(/C=C/c2nc(NCCN(C)C)c3cc(F)ccc3n2)cc1`: the IC50 was determined as 3.28 µM in “cells”, 4.03 µM in the data set on K562, 0.06 µM in the data set on MV4-11 and 4.1 µM with U-937. Besides, the solubility (kinetic) at 24 h in “physchem [1]” is 5 µM (≈ 1.89 µg/mL); in “physchem [2]”, 119 µM (≈ 45 µg/mL). In the data set “in vitro”, the Papp at 5 h came out at 3.38 ×10⁻⁶ cm/s.
`CN(C)CCNc1nc(/C=C/c2ccc(S(C)(=O)=O)cc2)nc2ccc(Cl)cc12`: the IC50 in the data set “cells” was 4.76 µM; in the data set with K562, 6.94 µM; in the data set on U-937, 12.3 µM. Moreover, the kinetic solubility at 24 h is 8 µM (≈ 3.45 µg/mL) in “physchem [1]” and 112 µM (≈ 48.3 µg/mL) in “physchem [2]”. In addition, the Papp at 5 h in the data set “in vitro” is 0.36 ×10⁻⁶ cm/s.
Consider `COc1cc2c(N3CCN(C(=O)Nc4ccc(OC(C)C)cc4)CC3)ncnc2cc1OCCCN1CCCCC1` [TANDUTINIB], for which the IC50 was 11.4 µM in the data set “cells”, 9.21 µM in the data set on K562, 0.06 µM in the data set on MV4-11 and 19.8 µM with U-937.
